Data published in PMC7914897, “Cytotoxic Potential of a-Azepano- and 3-Amino-3,4-SeCo-Triterpenoids” (International Journal of Molecular Sciences, 2021).
Like-named read-outs stand apart in the source and are kept apart here.

Experiments:
[1] = test system: NIH 3T3 (non-malignant mouse fibroblasts); experiment: SRB cytotoxicity assay, 72 h; format: cell-based; details: Mus musculus, NIH3T3; NIH 3T3, 72 h, cut-off 30 µM; read-out: EC50
Outline: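 Exponentially growing cells were seeded to avoid confluence, then exposed after 24 h to serial compound dilutions (0–30 µM; DMSO ≤0.5%) for 72 h. Cells were fixed with 10% TCA at 4 °C, stained with 0.4% SRB, and bound dye dissolved in 10 mM Tris base was read at 570 nm. EC50 came from survival relative to untreated controls.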

LOX IMVI (Melanoma) = experiment: NCI-60 screen (SRB, 48 h); format: cell-based; details: Homo sapiens
OVCAR-4 (Ovarian cancer) = experiment: NCI-60 screen (SRB, 48 h); format: cell-based; details: Homo sapiens
Leukemia subpanel = experiment: cells; details: Homo sapiens
OVCAR-3 (Ovarian cancer) = experiment: cells; details: Homo sapiens
[2] = test system: MDA-MB-468 (Breast cancer); experiment: cells; details: Homo sapiens
Colon Cancer subpanel = experiment: NCI-60 screen, subpanel; details: Homo sapiens
CNS cancer subpanel = experiment: NCI-60 screen, subpanel; details: Homo sapiens
Melanoma subpanel = experiment: NCI-60 screen, subpanel; details: Homo sapiens
Breast cancer subpanel = experiment: NCI-60 screen, subpanel; details: Homo sapiens
MOLT-4 (Leukemia) = experiment: NCI-60 screen (SRB, 48 h); details: Homo sapiens
[3] = test system: NCI-H226 (NSC lung cancer); experiment: NCI-60 screen (SRB, 48 h); details: Homo sapiens
[4] = test system: NCI-H322M (NSC lung cancer); experiment: NCI-60 screen (SRB, 48 h); details: Homo sapiens
[5] = test system: NCI-H460 (NSC lung cancer); experiment: NCI-60 screen (SRB, 48 h); details: Homo sapiens
[6] = test system: NCI-H522 (NSC lung cancer); experiment: NCI-60 screen (SRB, 48 h); details: Homo sapiens
HCC-2998 (Colon cancer) = experiment: NCI-60 screen (SRB, 48 h); details: Homo sapiens
KM12 (Colon cancer) = experiment: NCI-60 screen (SRB, 48 h); details: Homo sapiens
SNB-75 (CNS cancer) = experiment: NCI-60 screen (SRB, 48 h); details: Homo sapiens
UACC-257 (Melanoma) = experiment: NCI-60 screen (SRB, 48 h); details: Homo sapiens
786-0 (Renal cancer) = experiment: NCI-60 screen (SRB, 48 h); details: Homo sapiens
A498 (Renal cancer) = experiment: NCI-60 screen (SRB, 48 h); details: Homo sapiens
[7] = test system: MDA-MB-31/ATCC (Breast cancer); experiment: NCI-60 screen (SRB, 48 h); details: Homo sapiens
[8] = test system: panel of approximately 60 cancer cell lines; experiment: NCI-60 screen (SRB, 48 h), full panel

Question: Which EC50 [1] does the source give for C=C(C)C1CCC2(CO)CCC3(C)C(CCC4C5(C)CCCNC(C)(C)C5CCC43C)C12 (centres unmarked) [Compound 1, Azepanobetulin] here?
Answer: The EC50 was 1.6 ± 0.4 µM.

Question: And the IC (TGI) (LOX IMVI (Melanoma); 48 h)?
Answer: Its IC (TGI) is 3.03 µM.

Question: And the GI50 (LOX IMVI (Melanoma); read-out: GI50)?
Answer: The GI50 was 1.51 µM.

Question: And the IC (TGI) (OVCAR-4 (Ovarian cancer); OVCAR-4, 48 h)?
Answer: Its IC (TGI) is 2.81 µM.

Question: What about the GI50 (OVCAR-4 (Ovarian cancer); OVCAR-4, read-out: GI50) of the same molecule?
Answer: Its GI50 is 1.45 µM.

Question: And the IC (TGI) (Leukemia subpanel; 48 h, read-out: TGI MG_MID)?
Answer: The IC (TGI) was 4.3 µM.

Question: What about the GI50 (Leukemia subpanel; read-out: GI50 MG_MID) of the same molecule?
Answer: Its GI50 is 1.69 µM.

Question: And the CC50 (Leukemia subpanel; read-out: LC50 MG_MID)?
Answer: The CC50 was greater than 100 µM.

Question: What about the GI50 (OVCAR-3 (Ovarian cancer); OVCAR-3) of the same molecule?
Answer: The GI50 was 1.66 µM.

Question: What about the IC (TGI) (OVCAR-3 (Ovarian cancer); OVCAR-3, 48 h, read-out: TGI) of the same molecule?
Answer: The IC (TGI) was 3.13 µM.

Question: And the CC50 (OVCAR-3 (Ovarian cancer); OVCAR-3, read-out: LC50)?
Answer: Its CC50 is 5.91 µM.

Question: And the GI50 ([2]; MDA-MB-468)?
Answer: The GI50 was 1.66 µM.

Question: What about the IC (TGI) ([2]; MDA-MB-468, 48 h, read-out: TGI) of the same molecule?
Answer: The IC (TGI) was 3.38 µM.

Question: What about the CC50 ([2]; MDA-MB-468, read-out: LC50) of the same molecule?
Answer: Its CC50 is 6.88 µM.

Question: And the IC (TGI) (Colon Cancer subpanel; 48 h, read-out: TGI MG_MID)?
Answer: The IC (TGI) was 3.01 µM.

Question: What about the GI50 (Colon Cancer subpanel; read-out: GI50 MG_MID) of the same molecule?
Answer: Its GI50 is 1.51 µM.

Question: And the CC50 (Colon Cancer subpanel; read-out: LC50 MG_MID)?
Answer: Its CC50 is 5.98 µM.

Question: What about the IC (TGI) (CNS cancer subpanel; 48 h, read-out: TGI MG_MID) of the same molecule?
Answer: Its IC (TGI) is 3.15 µM.

Question: What about the GI50 (CNS cancer subpanel; read-out: GI50 MG_MID) of the same molecule?
Answer: The GI50 was 1.65 µM.

Question: And the CC50 (CNS cancer subpanel; read-out: LC50 MG_MID)?
Answer: Its CC50 is 5.98 µM.

Question: And the IC (TGI) (Melanoma subpanel; 48 h, read-out: TGI MG_MID)?
Answer: Its IC (TGI) is 3.19 µM.

Question: What about the GI50 (Melanoma subpanel; read-out: GI50 MG_MID) of the same molecule?
Answer: The GI50 was 1.64 µM.

Question: And the CC50 (Melanoma subpanel; read-out: LC50 MG_MID)?
Answer: Its CC50 is 6.12 µM.

Question: And the IC (TGI) (Breast cancer subpanel; 48 h, read-out: TGI MG_MID)?
Answer: The IC (TGI) was 3.55 µM.

Question: What about the GI50 (Breast cancer subpanel; read-out: GI50 MG_MID) of the same molecule?
Answer: The GI50 was 1.71 µM.

Question: And the CC50 (Breast cancer subpanel; read-out: LC50 MG_MID)?
Answer: Its CC50 is 11.5 µM.

Question: What about the GI50 (MOLT-4 (Leukemia); MOLT-4) of the same molecule?
Answer: The GI50 was 1.79 µM.

Question: What about the IC (TGI) (MOLT-4 (Leukemia); MOLT-4, 48 h, read-out: TGI) of the same molecule?
Answer: The IC (TGI) was 4.5 µM.

Question: What about the CC50 (MOLT-4 (Leukemia); MOLT-4, read-out: LC50) of the same molecule?
Answer: The CC50 was greater than 100 µM.

Question: What about the GI50 ([3]; NCI-H226) of the same molecule?
Answer: The GI50 was 1.98 µM.

Question: And the IC (TGI) ([3]; NCI-H226, 48 h, read-out: TGI)?
Answer: The IC (TGI) was 4.09 µM.

Question: What about the CC50 ([3]; NCI-H226, read-out: LC50) of the same molecule?
Answer: The CC50 was 8.43 µM.

Question: What about the GI50 [4] of the same molecule?
Answer: The GI50 was 1.63 µM.

Question: What about the IC (TGI) ([4]; 48 h, read-out: TGI) of the same molecule?
Answer: Its IC (TGI) is 3.03 µM.

Question: And the CC50 ([4]; read-out: LC50)?
Answer: Its CC50 is 5.64 µM.

Question: And the GI50 ([5]; NCI-H460)?
Answer: The GI50 was 1.63 µM.

Question: What about the IC (TGI) ([5]; NCI-H460, 48 h, read-out: TGI) of the same molecule?
Answer: The IC (TGI) was 3.21 µM.

Question: And the CC50 ([5]; NCI-H460, read-out: LC50)?
Answer: The CC50 was 6.3 µM.

Question: What about the GI50 ([6]; NCI-H522) of the same molecule?
Answer: Its GI50 is 1.65 µM.

Question: What about the IC (TGI) ([6]; NCI-H522, 48 h, read-out: TGI) of the same molecule?
Answer: The IC (TGI) was 3.42 µM.

Question: And the GI50 (HCC-2998 (Colon cancer); HCC 2998)?
Answer: Its GI50 is 1.51 µM.

Question: And the IC (TGI) (HCC-2998 (Colon cancer); HCC 2998, 48 h, read-out: TGI)?
Answer: The IC (TGI) was 2.93 µM.

Question: And the CC50 (HCC-2998 (Colon cancer); HCC 2998, read-out: LC50)?
Answer: Its CC50 is 5.68 µM.

Question: What about the GI50 (KM12 (Colon cancer); KM12) of the same molecule?
Answer: The GI50 was 1.73 µM.

Question: What about the IC (TGI) (KM12 (Colon cancer); KM12, 48 h, read-out: TGI) of the same molecule?
Answer: Its IC (TGI) is 3.24 µM.

Question: What about the CC50 (KM12 (Colon cancer); KM12, read-out: LC50) of the same molecule?
Answer: Its CC50 is 6.09 µM.

Question: And the GI50 (SNB-75 (CNS cancer); SNB-75)?
Answer: Its GI50 is 1.54 µM.

Question: And the IC (TGI) (SNB-75 (CNS cancer); SNB-75, 48 h, read-out: TGI)?
Answer: Its IC (TGI) is 2.91 µM.

Question: And the CC50 (SNB-75 (CNS cancer); SNB-75, read-out: LC50)?
Answer: The CC50 was 5.5 µM.

Question: What about the GI50 (UACC-257 (Melanoma); UACC-257) of the same molecule?
Answer: The GI50 was 1.95 µM.

Question: And the IC (TGI) (UACC-257 (Melanoma); UACC-257, 48 h, read-out: TGI)?
Answer: Its IC (TGI) is 3.73 µM.

Question: What about the CC50 (UACC-257 (Melanoma); UACC-257, read-out: LC50) of the same molecule?
Answer: Its CC50 is 7.14 µM.

Question: What about the GI50 (786-0 (Renal cancer); 786-0) of the same molecule?
Answer: Its GI50 is 1.62 µM.

Question: What about the IC (TGI) (786-0 (Renal cancer); 786-0, 48 h, read-out: TGI) of the same molecule?
Answer: The IC (TGI) was 3.16 µM.

Question: What about the CC50 (786-0 (Renal cancer); 786-0, read-out: LC50) of the same molecule?
Answer: The CC50 was 6.19 µM.

Question: And the GI50 (A498 (Renal cancer); A498)?
Answer: The GI50 was 2.17 µM.

Question: What about the IC (TGI) (A498 (Renal cancer); A498, 48 h, read-out: TGI) of the same molecule?
Answer: The IC (TGI) was 5.63 µM.

Question: What about the CC50 (A498 (Renal cancer); A498, read-out: LC50) of the same molecule?
Answer: The CC50 was 33 µM.

Question: What about the GI50 [7] of the same molecule?
Answer: Its GI50 is 1.77 µM.

Question: What about the IC (TGI) ([7]; 48 h, read-out: TGI) of the same molecule?
Answer: Its IC (TGI) is 3.21 µM.

Question: And the CC50 ([7]; read-out: LC50)?
Answer: Its CC50 is 5.8 µM.

Question: What about the “Positive Cytostatic Effect (cell lines with percent growth 0 to 50 / total)” value ([8]; 1 dose 10 µM) of the same molecule?
Answer: The value was 27/59.

Question: What about the “number of cancer cell lines the compound was active against” value ([8]; 1 dose 10 µM) of the same molecule?
Answer: Its value is 28 cell lines.

Question: And the activity at 10 µM ([8]; Homo sapiens, 48 h, read-out: Mean Growth, %)?
Answer: The activity at 10 µM was 20.8%.

Question: And the activity at 10 µM ([8]; Homo sapiens, 48 h, read-out: Range of Growth, %)?
Answer: The activity at 10 µM was -82.5 to 84.4%.

Question: And the IC (TGI) ([8]; Homo sapiens, 48 h, read-out: TGI MG_MID60, average over all cell lines)?
Answer: Its IC (TGI) is 3.34 µM.

Question: And the GI50 ([8]; Homo sapiens, read-out: GI50 MG_MID60)?
Answer: Its GI50 is 1.7 µM.

Question: And the GI50 ([8]; Homo sapiens, read-out: GI50 against all human tumor cell lines)?
Answer: Its GI50 is less than 3 µM.
